Assay results reported in patent US8614064B2, “Methods of diagnosing atherosclerosis by measuring ApoCI” (The Johns Hopkins University, priority 2003, dated 2013).

Tests used:
cytochrome c [1] = assay: Cytochrome c release, Western immunoblot with densitometric scanning, ASMC; assay type: cell-based, human; settings: 24 h; ApoCI and ApoCIII 2.5 μg/mL, ApoCI-enriched HDL 1 μg apoA-I/mL
Experimental: FIGS. 5A-5C depict the effect of ApoCI, ApoCIII, ApoCI-enriched HDL, and GW4869 on cytochrome c release in ASMC. After treatment of confluent cells for 24 hours with ApoCI (2.5 μg/mL medium), ApoCIII (2.5 μg/mL medium), or ApoCI-enriched HDL (1 μg apoA-I/mL medium), the cells were lysed. The cell lysate was used as the source of cytochrome c, and the pellet was used as a source of caspase-3. The cell lysates were separated by SDS-polyacrylamide gel electrophoresis, blotted onto nitrocellulose, and cytochrome c detected using a polyclonal antibody against cytochrome c (FIG. 5A, top panel). The gels were then subjected to densitometric scanning (FIG. 5B, middle panel). In a separate experiment (FIG. 5C, right), confluent cells were grown on cover slips and pretreated with serum-free medium for 30 minutes. The cells were then incubated with control medium, ApoCI (2.5 μg/mL medium), TNF-α (20 ng/mL), or ApoCI (2.5 μg/mL)+GW4869 (20 μmol/L) for 24 hours. The cells were then washed, treated with a primary anti-cytochrome c antibody, washed with phosphate-buffered saline, and treated with a fluorescein isothiocyanate-conjugated anti-rabbit IgG (FIG. 5C, lower panel). […]

caspase-3 = assay: Caspase-3 level, Western immunoblot, ASMC; assay type: cell-based, human; settings: compared with control medium; ApoCI and ApoCIII 2.5 μg/ml, ApoCI-enriched HDL 1 μg apoA-I/ml, ApoCI-poor HDL 5 μg apoA-I/ml
Experimental: After incubation with ApoCI (2.5 μg/ml medium), ApoCIII (2.5 μg/ml medium), apoC-1-enriched HDL (1 μg apoA-I/ml medium), or ApoCI-poor HDL (5 μg ApoA-I/ml medium) for 24 h and 48 h, the cells were subjected to extraction with a buffer (30 mM HEPES, pH 7.5, 10 mM KCl, 1.5 mM MgCl2, 5 mM DTI, 2 mM phenylmethylsulfonyl fluoride (PMSF), 1% Nonidet P-40, 0.5% sodium deoxycholate, 0.1% SDS, 2 μg/ml leupeptin, 2 μg/ml aprotinin, 0.5 μg/ml benzamidine, and 250 mM sucrose) on ice for 30 min. Next, the samples were centrifuged at 10,000×g at 4° C. The supernatant was utilized as a source of cytochrome c in Western immunoblot assay. The pellets were lysed in RIPA buffer (phosphate buffer saline, 1% Nonidet P-40, 0.5% sodium deoxycholate, 0.1% SDS, and cocktail of inhibitors described above). The samples were passed through a 21-gauge needle to shear the DNA. Next, 10 μl of PMSF (10 mg/ml) was added and incubation continued for 60 min on ice. The samples were centrifuged at 10,000-×g for 10 min at 4° C. The supernatants were used as a source of protein in Western immunoblot assay for determination of caspase activation. Proteins (100 μg) were separated using 4-15% SDS-polyacrylamide gel under denaturing conditions and electro transferred onto nitrocellulose. […]

cytochrome c [2] = assay: Immunofluorescence of cytochrome c in human cultured aortic smooth muscle cells; assay type: cell-based; settings: 24 h
Experimental: FIGS. 5A-5C depict the effect of ApoCI, ApoCIII, ApoCI-enriched HDL, and GW4869 on cytochrome c release in ASMC. After treatment of confluent cells for 24 hours with ApoCI (2.5 μg/mL medium), ApoCIII (2.5 μg/mL medium), or ApoCI-enriched HDL (1 μg apoA-I/mL medium), the cells were lysed. The cell lysate was used as the source of cytochrome c, and the pellet was used as a source of caspase-3. The cell lysates were separated by SDS-polyacrylamide gel electrophoresis, blotted onto nitrocellulose, and cytochrome c detected using a polyclonal antibody against cytochrome c (FIG. 5A, top panel). The gels were then subjected to densitometric scanning (FIG. 5B, middle panel). In a separate experiment (FIG. 5C, right), confluent cells were grown on cover slips and pretreated with serum-free medium for 30 minutes. The cells were then incubated with control medium, ApoCI (2.5 μg/mL medium), TNF-α (20 ng/mL), or ApoCI (2.5 μg/mL)+GW4869 (20 μmol/L) for 24 hours. The cells were then washed, treated with a primary anti-cytochrome c antibody, washed with phosphate-buffered saline, and treated with a fluorescein isothiocyanate-conjugated anti-rabbit IgG (FIG. 5C, lower panel).
AOSMC (5×10^3) were grown on cover slips to confluence and pretreated with serum free medium for 30 min as described above. […]

ceramide = assay: Anti-ceramide antibody immunofluorescence microscopy in ASMC; assay type: cell-based, human; settings: 24 h
Experimental: FIGS. 4A-4D depict the effect of ApoCI, ApoCI-enriched HDL, and ApoCI-poor HDL on the level of ceramide in ASMC. Confluent ASMC were incubated with ApoCI (2.5 μg/mL) with time (FIG. 4A, upper left) or with ApoCI-enriched HDL (1 μg apoA-I/mL medium) or ApoCI-poor HDL (5 μg apoA-I/mL medium) (FIG. 4B, upper right) for 30 minutes. FIG. 4C: The cells were incubated with ApoCI alone ([…]) for 5 minutes or preincubated with GW4869 (20 μmol/L) for 30 minutes. After addition of ApoCI (2.5 μg/mL), incubation was continued for 6 hours, 12 hours, and 24 hours. After incubation, cells were harvested and the levels of ceramide determined using the diacylglycerol kinase assay. The level of phosphate was measured and the data (mean±SD) were expressed as percentage of the total ceramide present in untreated cells (vehicle DMSO). *P<0.05. In a separate experiment (FIG. 4D, right), confluent cells were grown on cover slips and pretreated with serum-free medium for 30 minutes. The cells were then incubated with vehicle DMSO alone (control), ApoCI (2.5 μg/ML), or ApoCI (2.5 μg/mL) plus the N-SMase inhibitor GW4869 (20 μmol/L) for 24 hours. The cells were then washed, treated with a primary anticeramide antibody, washed with phosphate-buffered saline, and treated with a fluorescein isothiocyanate-conjugated anti-mouse IgG (FIG. 4C, lower panel).

Compound | stimulation of the release of cytochrome c (cytochrome c [1]) | stimulation of caspase-3 level/expression (caspase-3) | release of cytochrome c from mitochondria into the cytoplasm (immunofluorescence) (cytochrome c [2]; ApoCI 2.5 μg/mL) | anti-ceramide immunofluorescence of treated cells (ceramide; ApoCI 2.5 μg/mL, compared with control cells) | effect of GW4869 on ApoCI-induced cytochrome c release (immunofluorescence) (cytochrome c [2]; ApoCI 2.5 μg/mL + GW4869 20 μmol/L) | effect of GW4869 on ApoCI-induced ceramide immunofluorescence (ceramide; ApoCI 2.5 μg/mL plus GW4869 20 μmol/L)
ApoCIII: purified human ApoCIII purchased from Academy Bio-Medical Company, used as negative control | 2.3 fold | to a lesser extent than ApoCI-enriched HDL | – | – | – | –
Apolipoprotein C-I (TPDVSSALDKLKEFGNTLEDKARELISRIKQSELSAKMREWFSETFQKVKEKLKIDS; UniProt P02654 27-83, looked up) [ApoCI, 6.6-kDa single-chain plasma protein of 57 amino acids; purified human ApoCI purchased from Academy Bio-Medical Company] | 4.1 fold | 4 fold | marked increase | reacted strongly | – | –
O=C(/C=C/c1ccc(/C=C/C(=O)Nc2ccc(C3=NCCN3)cc2)cc1)Nc1ccc(C2=NCCN2)cc1 [GW4869] | – | – | – | – | inhibited | eliminated
